# The Bradley open melting point set (2014)
# “And” between values parts separate entries of the source, which are not always exact repeats. Identical values can stand only once.
row,SMILES,melting point
1,"Cc1cc(Cl)nc(Cl)c1C#N [2,6-dichloro-3-cyano-4-methylpyridine]",110 °C
2,"O=[N+]([O-])c1cc(Cl)[n+]([O-])c(Cl)c1 [2,6-dichloro-4-nitropyridine n-oxide]",178 °C
3,"Nc1c(Cl)cccc1Cl [2,6-dichloroaniline]",40 °C
4,"N#Cc1c(Cl)cccc1Cl [2,6-dichlorobenzonitrile]",145 °C
5,"Oc1c(Cl)cccc1Cl [2,6-dichlorophenol] [listing 1 of 2 here]",67 °C and 68.5 °C and 65 °C (2×)
6,"Oc1c(Cl)cccc1Cl [2,6-dichlorophenol] [listing 2 of 2 here]",67 °C
7,"N#Cc1c(F)ccc([N+](=O)[O-])c1F [2,6-difluoro-3-nitrobenzonitrile]",53 °C
8,"Cc1cc(I)cc(C)c1O [2,6-dimethyl-4-iodophenol]",97 °C
9,"Cc1cccc(C)c1N [2,6-dimethylaniline]",12 °C
10,"CC(Oc1cc(Cl)c(Cl)cc1Cl)C(=O)O (stereo unspecified) [2-(2,4,5-Trichlorophenoxy)propanoic acid]",176 °C
11,c1csc(C2CNCCN2)c1 (stereo unspecified) [2-(2-thienyl)piperazine],83 °C
12,CC(Oc1cccc(Cl)c1)C(=O)O (stereo unspecified) [2-(3-chlorophenoxy)propionic acid],115 °C
13,"Nc1ccc(C(O)(C(F)(F)F)C(F)(F)F)cc1 [2-(4-aminophenyl)-1,1,1,3,3,3-hexafluoro-2-propanol]",150 °C
14,NCCc1ccc(-c2ccccc2)cc1 [2-(4-biphenylyl)ethylamine],52 °C
15,Nc1cc(C(F)(F)F)ccc1N1CCOCC1 [2-(4-morpholinyl)-5-(trifluoromethyl)aniline],127 °C

# Next, values leading:
row,melting point,SMILES
1,10 °C,"COc1c(Cl)cccc1Cl [2,6-dichloroanisole]"
2,199 °C,"NC(=O)c1c(Cl)cccc1Cl [2,6-dichlorobenzamide]"
3,17 °C,"O=C(Cl)c1c(Cl)cccc1Cl [2,6-dichlorobenzoyl chloride]"
4,190 °C,"NS(=O)(=O)c1c(F)cccc1F [2,6-difluorobenzenesulfonamide]"
5,101 °C,"O=C(O)Cc1c(F)cccc1F [2,6-difluorophenylacetic acid]"
6,224 °C,"Oc1ccc2cc(O)ccc2c1 [2,6-dihydroxynaphthalene]"
7,107 °C,"COc1cccc(OC)c1B(O)O [2,6-dimethoxybenzeneboronic acid]"
8,85 °C,"COc1cccc(OC)c1CN [2,6-dimethoxybenzylamine]"
9,81 °C,"COc1cccc(OC)c1OCC(=O)O [2,6-dimethoxyphenoxyacetic acid]"
10,134 °C,"Cc1cc(=O)cc(C)o1 [2,6-dimethyl-4-pyrone]"
11,43 °C,N#Cc1ccccc1N1CCCCC1 [2-(1-piperidinyl)benzonitrile]
12,274 °C,"O=C1c2ccccc2C(=O)N1c1nc2ccccc2[nH]1 [2-(1H-Benzimidazol-2-yl)-1H-isoindole-1,3(2H)-dione]"
13,153 °C,Nc1ccccc1C1C=c2ccccc2=N1 (stereo unspecified) [2-(1H-Indol-2-yl)anilin]
14,92 °C,"O=[N+]([O-])c1ccc(Cc2ccccn2)c([N+](=O)[O-])c1 [2-(2,4-Dinitrobenzyl)pyridine]"
15,132 °C,Oc1ccccc1-c1nc2ccccc2s1 [2-(2-hydroxyphenyl)benzothiazole]
16,102 °C,c1ccc2cc(C3CNCCN3)ccc2c1 (stereo unspecified) [2-(2-naphthyl)piperazine]
17,97.8 °C,Cc1ccc(-n2ncccc2=O)cc1 [2-(4-Methylphenyl)pyridazin-3(2H)-one]
18,120 °C,CC(C)(Oc1ccc(Cl)cc1)C(=O)O [2-(4-chlorophenoxy)isobutyric acid]
19,184 °C,O=C(O)c1cccnc1Oc1ccc(F)cc1 [2-(4-fluorophenoxy)nicotinic acid]
20,206 °C,O=C(O)c1ccccc1/N=N/c1ccc(O)cc1 [2-(4-hydroxyphenyl-azo)benzoic acid]
21,140 °C,Cc1ccc(C(=O)c2ccccc2C(=O)O)cc1 [2-(4-methylbenzoyl)benzoic acid]
